± gives the expanded uncertainty stated by the source.
Assay: mn = molality of the nth substance listed, in mol/kg
Conditions: 87 kPa, Liquid, Vibrating tube method

CCn1cc[n+](C)c1.O=S(=O)([O-])O [1-ethyl-3-methylimidazolium hydrogen sulfate] + O
mass density [kg/m3]
Conditions	m1 = 0.0363	m1 = 0.0687	m1 = 0.1026	m1 = 0.1384	m1 = 0.1716	m1 = 0.2049	m1 = 0.2391	m1 = 0.2718	m1 = 0.3034	m1 = 0.3375
293.15 K	1000.86 ± 6	1003.08 ± 6	1005.3 ± 6	1007.57 ± 6	1009.63 ± 6	1011.67 ± 6	1013.72 ± 6	1015.68 ± 6	1017.53 ± 6	1019.54 ± 6
298.15 K	999.65 ± 6	1001.82 ± 6	1003.99 ± 6	1006.22 ± 6	1008.23 ± 6	1010.23 ± 6	1012.24 ± 6	1014.17 ± 6	1016 ± 6	1017.98 ± 6
303.15 K	998.2 ± 6	1000.33 ± 6	1002.46 ± 6	1004.64 ± 6	1006.63 ± 6	1008.6 ± 6	1010.58 ± 6	1012.47 ± 6	1014.26 ± 6	1016.21 ± 6
308.15 K	996.54 ± 6	998.63 ± 6	1000.73 ± 6	1002.87 ± 6	1004.82 ± 6	1006.76 ± 6	1008.7 ± 6	1010.58 ± 6	1012.34 ± 6	1014.25 ± 6
313.15 K	994.68 ± 6	996.73 ± 6	998.8 ± 6	1000.91 ± 6	1002.83 ± 6	1004.74 ± 6	1006.66 ± 6	1008.5 ± 6	1010.24 ± 6	1012.13 ± 6

From the NIST ThermoML archive (doi:10.1016/j.fluid.2016.08.036)
